≈ marks a conversion by molar mass, not a printed value. Where two headings read alike, the source gives them in different places.
How the values were obtained:
OATP1B1 [1] = target: T1, OATP1B1 (Homo sapiens, UniProt Q9Y6L6); parameters: FLAG; expressed in transfected cells; conditions: cited from earlier work
T1 sequence (Q9Y6L6 1-691): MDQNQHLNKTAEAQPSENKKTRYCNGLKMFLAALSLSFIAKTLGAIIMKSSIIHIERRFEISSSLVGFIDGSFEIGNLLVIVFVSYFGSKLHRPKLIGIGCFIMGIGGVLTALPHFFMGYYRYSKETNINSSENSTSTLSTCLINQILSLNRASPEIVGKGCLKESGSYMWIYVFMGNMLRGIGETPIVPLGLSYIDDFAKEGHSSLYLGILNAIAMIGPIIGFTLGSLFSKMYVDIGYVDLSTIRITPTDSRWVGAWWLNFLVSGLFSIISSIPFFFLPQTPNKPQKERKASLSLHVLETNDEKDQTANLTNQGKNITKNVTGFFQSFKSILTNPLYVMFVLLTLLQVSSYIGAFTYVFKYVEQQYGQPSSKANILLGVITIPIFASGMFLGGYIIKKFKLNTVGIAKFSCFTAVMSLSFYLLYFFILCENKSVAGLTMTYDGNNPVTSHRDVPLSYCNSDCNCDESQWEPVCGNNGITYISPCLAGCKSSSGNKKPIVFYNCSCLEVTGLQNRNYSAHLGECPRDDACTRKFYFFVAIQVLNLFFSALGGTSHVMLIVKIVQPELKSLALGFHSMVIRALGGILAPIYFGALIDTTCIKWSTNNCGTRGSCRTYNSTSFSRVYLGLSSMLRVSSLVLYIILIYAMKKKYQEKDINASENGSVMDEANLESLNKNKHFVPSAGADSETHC

OATP1B3 [2] = target: T2, OATP1B3 (Homo sapiens, UniProt Q9NPD5); assay: Prediction of OATP1B3-mediated DDI using the static R-value model; parameters: FLAG; expressed in transfected cells; conditions: predicted AUC ratio
T2 sequence (Q9NPD5 1-702): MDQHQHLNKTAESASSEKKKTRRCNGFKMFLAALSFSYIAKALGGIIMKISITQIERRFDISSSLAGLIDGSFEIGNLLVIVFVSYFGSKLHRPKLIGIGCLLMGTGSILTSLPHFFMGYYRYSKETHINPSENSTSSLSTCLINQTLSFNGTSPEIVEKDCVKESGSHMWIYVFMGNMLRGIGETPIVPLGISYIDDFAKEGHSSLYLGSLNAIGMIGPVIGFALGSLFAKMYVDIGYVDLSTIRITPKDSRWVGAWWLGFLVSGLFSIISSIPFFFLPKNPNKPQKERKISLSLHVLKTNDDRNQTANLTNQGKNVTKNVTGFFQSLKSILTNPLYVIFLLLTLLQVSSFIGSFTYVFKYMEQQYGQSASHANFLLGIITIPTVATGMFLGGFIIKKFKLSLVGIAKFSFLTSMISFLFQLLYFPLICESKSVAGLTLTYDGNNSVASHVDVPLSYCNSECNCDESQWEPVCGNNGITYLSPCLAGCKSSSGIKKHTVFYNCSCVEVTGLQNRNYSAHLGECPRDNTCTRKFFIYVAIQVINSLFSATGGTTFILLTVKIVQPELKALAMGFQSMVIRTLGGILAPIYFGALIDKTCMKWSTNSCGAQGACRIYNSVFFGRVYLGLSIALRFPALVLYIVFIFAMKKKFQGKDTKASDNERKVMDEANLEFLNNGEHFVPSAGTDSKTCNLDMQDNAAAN
Description: (§1) The R-value, which represents the predicted AUC ratio of the substrate drug in the presence versus absence of an inhibitor drug, was calculated based on Equation (2), following the US-FDA final guidance with the parameters summarized in Table 1.
(§2) The fa is the fraction absorbed. […] Fg is the fraction that escaped gut metabolism (Fg). The ka is the absorption rate constant. […] Qh is the hepatic blood flow rate (1500 mL/min). RB is the blood-to-plasma concentration ratio. […] (3) Iin,max=Imax+faFg×ka×Dose/Qh×RB

[3] = human plasma; cited from earlier work
[4] = Maximum aqueous soluble concentration; assay type: physicochemical; conditions: aqueous solution (not further specified)
OATP1B1 [5] = target: T1, OATP1B1; assay: cell-based; conditions: for OATP1B1-mediated transport after preincubation: washed, substrate without inhibitor; for IC50: [3H]-E217βG 1 µM, 2 min
Description: (§3) HEK293 stable cell lines expressing FLAG-tagged OATP1B1 (HEK293-FLAG-OATP1B1) or FLAG-tagged OATP1B3 (HEK293-FLAG-OATP1B3) have been published previously. Both HEK293 stable cell lines were cultured in DMEM culture media supplemented with 9% FBS (abbreviated as FBS–DMEM), antibiotic antimycotic, and 600 µg/mL G418 as published previously.
(§4) HEK293-FLAG-OATP1B1 and HEK293-FLAG-OATP1B3 cells (less than 40 passages) were seeded in poly-L-lysine coated 24-well plates at a density of 1.5 × 10^5 cells per well and allowed to grow for 48 h until confluent before the transport studies. [^3H]-E217βG (1 µM, 2 min) and [^3H]-CCK-8 (1 µM, 3 min) were used as substrates for OATP1B1 and OATP1B3 in HEK293-FLAG-OATP1B1 and HEK293-FLAG-OATP1B3 cells, respectively. […] After preincubation, cells were washed three times with HBSS buffer and incubated with HBSS buffer containing substrate, in the […] of vehicle control or inhibitor. […] At the end of substrate incubation, cells were washed three times with ice-cold HBSS buffer and lysed in PBS containing 0.5% Triton X-100. Liquid scintillation counting was determined and normalized to the protein concentration, after correcting for any nonspecific binding in the poly-L-lysine-coated blank plates, as published previously.
(§5) (1) E=Bottom+Top−Bottom/(1+C/IC50) where E is the remaining substrate transport at a given inhibitor concentration (C).

OATP1B3 [6] = target: T2, OATP1B3
Description: as §3, §4, §5

[7] = steady state, read-out: Cmax, plasma, cited from earlier work
[8] = Nicardipine pharmacokinetic parameters for R-value determination; conditions: Estimated based on Equation (3)
Description: The fa is the fraction absorbed. […] Fg is the fraction that escaped gut metabolism (Fg). The ka is the absorption rate constant. […] Qh is the hepatic blood flow rate (1500 mL/min) [32]. RB is the blood-to-plasma concentration ratio. […] RB of 0.63 was used as a worst-case scenario.

OATP1B1 [9] = target: T1, OATP1B1; assay: Prediction of OATP1B1-mediated DDI using the static R-value model; parameters: FLAG; expressed in transfected cells; conditions: predicted AUC ratio
Description: as §1, §2

OATP1B1/3 = conditions: humans, cited from earlier work
[10] = test system: OATP1B1 c. 521CC genotype; conditions: subjects with OATP1B1 c. 521CC genotype; cited from earlier work
[11] = from co-incubation IC50, FBS-DMEM
[12] = from pre + co-incubation IC50, HBSS
[13] = from pre + co-incubation IC50, FBS-DMEM

SMILES: COC(=O)C1=C(C)NC(C)=C(C(=O)OCCN(C)Cc2ccccc2)C1c1cccc([N+](=O)[O-])c1 (stereo not drawn) [nicardipine]
- inhibition of OATP1B1-mediated transport (OATP1B1 [1]; 20 µM): 65%
- R (20 mg) (OATP1B3 [2]; [11]): 1.0
- R (20 mg) (OATP1B3 [2]; from co-incubation IC50, HBSS): 1.0
- R (20 mg) (OATP1B3 [2]; [12]): 1.1
- R (30 mg) (OATP1B3 [2]; from co-incubation IC50, HBSS): 1.0
- R (30 mg) (OATP1B3 [2]; [12]): 1.2
- R (40 mg) (OATP1B3 [2]; from co-incubation IC50, HBSS): 1.0
- R (40 mg) (OATP1B3 [2]; [12]): 1.3
- fu (Fraction unbound in the plasma) [3]: 0.05 [29]
- solubility [4]: 4 µM (≈ 1.92 µg/mL)
- effect of preincubation on OATP1B1-mediated transport (OATP1B1 [5]; 0.5 µM, 10 min preincubation in HBSS buffer): no effect
- OATP1B1-mediated transport after preincubation (OATP1B1 [5]; 0.5 µM, 30 min preincubation in HBSS buffer): 0.78 ± 0.04 fold of the control
- OATP1B1-mediated transport after preincubation (OATP1B1 [5]; 0.5 µM, 1 h preincubation in HBSS buffer): 0.82 ± 0.04 fold of the control
- effect of preincubation on OATP1B1-mediated transport (OATP1B1 [5]; 0.5 µM, any preincubation duration (10 min–1 h) in FBS-containing medium): no effect
- effect of preincubation on OATP1B1-mediated transport (OATP1B1 [5]; 2 and 4 µM, HBSS buffer and FBS-containing medium, all preincubation time points): significantly reduced
- IC50 (OATP1B1 [5]; IC50, Co-incubation only (no preincubation), FBS-DMEM row): 2.8 ± 2.44 µM
- IC50 (OATP1B1 [5]; IC50, Co-incubation only (no preincubation), HBSS row): 3.55 ± 2.46 µM
- IC50 (OATP1B1 [5]; IC50, Pre + co-incubation, 30 min preincubation in FBS-DMEM (9% FBS)): 1.57 ± 1.4 µM
- IC50 (OATP1B1 [5]; IC50, Pre + co-incubation, 30 min preincubation in protein-free HBSS buffer): 0.98 ± 0.26 µM
- effect of preincubation on OATP1B3-mediated transport (OATP1B3 [6]; 0.5 µM, any treatment condition): did not significantly affect
- effect of preincubation on OATP1B3-mediated transport (OATP1B3 [6]; FBS-containing medium, 4 µM for 30 min and 2 or 4 µM for 1 h): small, yet significant, reductions
- Cmax ([7]; 20 mg 3 times a day): 70 nM
- Cmax ([7]; 30 mg 3 times a day): 170 nM
- Cmax ([7]; 40 mg 3 times a day): 260 nM
- Iin, max (estimated total maximum plasma concentration at the inlet to the liver) [8]: 8.46 µM
- R (20 mg) (OATP1B1 [9]; [11]): 1.1
- R (20 mg) (OATP1B1 [9]; from co-incubation IC50, HBSS): 1.1
- R (20 mg) (OATP1B1 [9]; [13]): 1.1
- R (20 mg) (OATP1B1 [9]; [12]): 1.2
- R (30 mg) (OATP1B1 [9]; [11]): 1.1
- R (30 mg) (OATP1B1 [9]; from co-incubation IC50, HBSS): 1.1
- R (30 mg) (OATP1B1 [9]; [13]): 1.2
- R (30 mg) (OATP1B1 [9]; [12]): 1.3
- R (40 mg) (OATP1B1 [9]; [11]): 1.2
- R (40 mg) (OATP1B1 [9]; from co-incubation IC50, HBSS): 1.1
- R (40 mg) (OATP1B1 [9]; [13]): 1.3
- R (40 mg) (OATP1B1 [9]; [12]): 1.4

SMILES: COC(=O)C1=C(C)NC(C)=C(C(=O)OCC(C)C)C1c1ccccc1[N+](=O)[O-] (stereo not drawn) [Nisoldipine, nisoldipine]
- AUC Ratio (OATP1B1/3; AUC of telmisartan on coadministration): 2.32

SMILES: COCC(=O)O[C@]1(CCN(C)CCCc2nc3ccccc3[nH]2)CCc2cc(F)ccc2[C@@H]1C(C)C [Mibefradil, mibefradil]
- AUC Ratio (OATP1B1/3; AUC of atorvastatin on coadministration, ref 10 in text, ref 8 in Table 3): 4.43
- AUC Ratio (OATP1B1/3; AUC of pravastatin on coadministration of mibefradil): 1.32

SMILES: CCOC(=O)C1=C(COCCN)NC(C)=C(C(=O)OC)C1c1ccccc1Cl (stereo not drawn) [amlodipine]
- predicted DDI potential based on IC50 values against OATP1B1 (OATP1B1 [1]; IC50 determined without inhibitor-preincubation step): no DDI potential

SMILES: CC[C@H](C)C(=O)O[C@H]1C[C@H](O)C=C2C=C[C@H](C)[C@H](CC[C@@H](O)C[C@@H](O)CC(=O)O)[C@H]21 [pravastatin]
- increased AUC, fold of the reference [10]: 1.9 fold

Reference: article PMC10052025 (Pharmaceutics, 2023)
